Reference: PMC5054527, “Mechanism of high affinity inhibition of the human urate transporter URAT1” (Scientific Reports, 2016)
Numbering of substitutions follows the chain as printed. Like-named read-outs stand apart in the source and are kept apart here.

How the values were obtained:
Experiment in all cases: URAT1 uric acid transport activity assay
Format in all cases: cell-based
[1] = molecular target: T1, r-N35S/Y365F rURAT1 double point mutant (Rattus norvegicus, UniProt Q3ZAV1, N35S/Y365F)
T1 construct: expressed in transfected cells; host or cells: HEK-293T
T1 sequence (Q3ZAV1 1-553 N35S/Y365F): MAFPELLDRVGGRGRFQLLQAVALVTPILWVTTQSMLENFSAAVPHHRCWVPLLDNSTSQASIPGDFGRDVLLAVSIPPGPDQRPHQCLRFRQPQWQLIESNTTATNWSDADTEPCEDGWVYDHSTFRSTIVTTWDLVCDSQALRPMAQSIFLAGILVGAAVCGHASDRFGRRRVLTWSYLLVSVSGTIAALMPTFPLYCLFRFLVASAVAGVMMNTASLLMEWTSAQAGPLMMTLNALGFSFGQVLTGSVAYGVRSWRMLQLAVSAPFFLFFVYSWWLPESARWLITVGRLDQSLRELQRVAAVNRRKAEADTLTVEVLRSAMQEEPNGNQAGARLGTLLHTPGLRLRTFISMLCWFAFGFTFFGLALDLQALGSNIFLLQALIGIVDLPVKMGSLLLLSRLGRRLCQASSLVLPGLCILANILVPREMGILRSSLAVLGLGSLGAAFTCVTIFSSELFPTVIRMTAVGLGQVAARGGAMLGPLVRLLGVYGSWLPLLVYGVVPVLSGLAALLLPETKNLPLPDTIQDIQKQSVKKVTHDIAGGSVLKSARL
From the text: (§1) hURAT1 (GenBank BC053348.1) and rURAT1 (NCBI NM_001034943.1) genes were purchased from Origene Technologies, Inc. and subcloned into pCMV6/neo using NotI, creating pCMV6/neo-hURAT1 and pCMV6/neo-rURAT1. Mutants were produced by polymerase chain reaction (PCR) or site-directed mutagenesis using the QuikChange Lightning Multi Site-Directed Mutagenesis Kit (Agilent Technologies). […] Detailed methods are provided in Supplementary Methods, and primers are listed in Supplementary Table 1. […] Residues in rURAT1 and hOAT1 that correspond to the residues in hURAT1 were identified from aligned protein sequences (Supplementary Fig. 1)[50].
(§2) DNA (10 μg) was mixed with 30 μl of DreamFect Gold (Boca Scientific) in 2 ml OptiMem (Life Technologies). After 20 minutes, 18 ml of media containing 2 × 10^7 cells in suspension was added and mixed, and 200 μl per well were plated onto white clear-bottomed poly-D-lysine coated 96-well plates (BD Biosciences). The cells were assayed the following day.
(§3) Compounds were serially diluted into assay buffer and added to the cells for 5 minutes prior to addition of radiolabelled uric acid substrate. URAT1-expressing cells were incubated with 100 μM ^14C-uric acid for 10 minutes. […] Each treatment was measured in triplicate.
(§4) Unlabelled uric acid was prepared at a 20 mM stock just prior to use in a solution containing 20 mM dibasic potassium phosphate and 20 mM potassium hydroxide.
(§5) Nonlinear regression analyses using GraphPad Prism software were used to calculate the potency of URAT1 inhibitors (IC50 values) from log (inhibitor) versus response - variable slope (four parameters) equations. Statistical significance was assessed using Student’s unpaired t-tests.

[2] = molecular target: T2, r-T32C rURAT1 point mutant (Rattus norvegicus, UniProt Q3ZAV1, T32C)
T2 sequence (Q3ZAV1 1-553 T32C): T1 sequence (Q3ZAV1 1-553 N35S/Y365F) with T32C, S35N, F365Y
From the text: as §1, §2, §3, §4, §5

rat URAT1 (rURAT1 WT) = molecular target: T3, rat URAT1 (rURAT1 WT) (Rattus norvegicus, UniProt Q3ZAV1)
T3 sequence (Q3ZAV1 1-553): T1 sequence (Q3ZAV1 1-553 N35S/Y365F) with S35N, F365Y
From the text: as §1, §2, §3, §4, §5

[3] = r-N35S/Y365F, MES pH 5.5, 100 μM 14C-uric acid, read-out: IC50 (uric acid transport)
[4] = rURAT1 WT, MES pH 5.5, 100 μM 14C-uric acid, read-out: IC50 (uric acid transport)

**Q.** `O=C1C(CC[S+]([O-])c2ccccc2)C(=O)N(c2ccccc2)N1c1ccccc1` (stereo not drawn) [sulfinpyrazone] was tested. Which IC50 ([1]; r-N35S/Y365F, HEPES pH 7.3, 100 μM 14C-uric acid, read-out: IC50 (uric acid transport)) did it give?
**A.** Its IC50 is 142 ± 15 µM.

**Q.** And the IC50 ([2]; r-T32C, HEPES pH 7.3, 100 μM 14C-uric acid, read-out: IC50 (uric acid transport))?
**A.** Its IC50 is 691 ± 98 µM.

**Q.** What about the IC50 (rat URAT1 (rURAT1 WT); rURAT1 WT, HEPES pH 7.3, 100 μM 14C-uric acid, read-out: IC50 (uric acid transport)) of the same compound?
**A.** The IC50 was 680 µM.

**Q.** `O=c1[nH]c(=O)c2[nH]c(=O)[nH]c2[nH]1` [uric acid] was tested. Which “fold increased affinity of r-N35S/Y365F compared to rURAT1” value ([1]; from IC50 values) did it give?
**A.** Its value is 5.4 fold.

**Q.** And the IC50 [1, 3]?
**A.** The IC50 was 484 µM.

**Q.** And the IC50 (rat URAT1 (rURAT1 WT); [4])?
**A.** Its IC50 is 2630 µM.

**Q.** With `O=C(O)CSc1nnc(Br)n1-c1ccc(C2CC2)c2ccccc12` [lesinurad, 2-((5-bromo-4-(4-cyclopropylnaphthalen-1-yl)-4H-1,2,4-triazol-3-yl)thio)acetic acid] as the compound, how does the IC50 [1, 3] read?
**A.** The IC50 was 1.6 ± 0.03 µM.

**Q.** And the IC50 ([2]; r-T32C, MES pH 5.5, 100 μM 14C-uric acid, read-out: IC50 (uric acid transport))?
**A.** The IC50 was 73 ± 5.9 µM.

**Q.** And the IC50 (rat URAT1 (rURAT1 WT); [4])?
**A.** The IC50 was 81 µM.

**Q.** `CCc1oc2ccccc2c1C(=O)c1cc(Br)c(O)c(Br)c1` [benzbromarone] was tested. Which IC50 [1] did it give?
**A.** Its IC50 is 2.2 ± 0.29 µM.

**Q.** And the IC50 [2]?
**A.** Its IC50 is 24 ± 4 µM.

**Q.** What about the IC50 (rat URAT1 (rURAT1 WT)) of the same compound?
**A.** Its IC50 is 26 µM.
